Patent publication US20250340551A1, “SMALL MOLECULE MODULATORS OF STAT6” (Gilead Sciences, Inc., priority 2024, published 2025)

System: Eotaxin-3 (CCL26) release in human whole blood stimulated with IL-4
Assay: Human whole blood eotaxin-3 assay (IL-4 stimulated, Eotaxin-3 release)
Format: cell-based
Details: Homo sapiens, 48 h
Experimental: This was a human whole blood assay using recombinant human Interleukin 4 to stimulate the blood and measuring the ability of the test compounds to inhibit eotaxin-3 release. The biological activities of the test compounds have been tested in human whole blood stimulated with IL-4 measuring Eotaxin-3 release. The test compounds were added to 384 well clear flat-bottom plate in a 4-fold serial dilution in triplicates using a liquid handler. Human whole blood stabilized in lithium-heparin tubes was added in a volume of 65 μL per well, resulting in a final DMSO concentration of 0.5%. The plate is incubated for 2 h at 37° C. under 5% CO2/95% air. Subsequently, 5 μL of recombinant human IL-4 (R&D Systems, cat #204-ILB) was added to the wells to a final concentration of 400 pM. The plate was incubated for 48 h at 37° C. under 5% CO2/95% air. The plate was spun down for 10 minutes at 500×g and 20 μL supernatant was harvested and transferred to a 384 well v-bottom plate using a liquid handler and stored at −20° C. until further analysis. 10 μL supernatant was used to measure the level of Eotaxin-3 (CCL26) using Human Eotaxin-3 MSD kit from Mesocsale (Cat #K251UEK-4). The assay was performed according to the manufacture instructions.
The data from the human whole blood eotaxin-3 assay is shown below for Examples 1u2, 1x1, 1af26, and 1af36 (where the effect in % is plotted against the test concentration in M on a log-scale).

| Compound | Emax [%] |
| --- | --- |
| CNc1ccc(-c2ccnc3c2cc(CN2CCN(c4ccc(C(=O)N(C)C)cn4)CC2)n3C)nn1 [Example 1p9, N,N-Dimethyl-6-[4-[[1-methyl-4-[6-(methylamino)pyridazin-3-yl]pyrrolo[2,3-b]pyridin-2-yl]methyl]piperazin-1-yl]pyridine-3-carboxamide] | < 20 |
| CN(C)C(=O)c1ccc(C2=CCN(Cc3cc4c(-c5ccc(N)nc5)ccnc4n3C)CC2)nn1 [Example 1z3, 6-(1-((4-(6-aminopyridin-3-yl)-1-methyl-1H-pyrrolo[2,3-b]pyridin-2-yl)methyl)-1,2,3,6-tetrahydropyridin-4-yl)-N,N-dimethylpyridazine-3-carboxamide] | < 20 |
| [2H]C([2H])([2H])N(C(=O)c1ccc(C2=CCN(Cc3cc4c(-c5ccc(N)nc5)ccnc4n3C)CC2)nn1)C([2H])([2H])[2H] [Example 1z4, 6-(1-((4-(6-aminopyridin-3-yl)-1-methyl-1H-pyrrolo[2,3-b]pyridin-2-yl)methyl)-1,2,3,6-tetrahydropyridin-4-yl)-N,N-bis(methyl-d3)pyridazine-3-carboxamide] | 20 to 30 |
| Cc1cc(C2=CCN(Cc3cc4c(-c5ccc(N)nc5)ccnc4n3C)CC2)ccc1C(=O)N(C)C [Example 1z5, 4-(1-((4-(6-aminopyridin-3-yl)-1-methyl-1H-pyrrolo[2,3-b]pyridin-2-yl)methyl)-1,2,3,6-tetrahydropyridin-4-yl)-N,N,2-trimethylbenzamide] | 30 to 40 |
| Cc1cc(C(=O)N(C)C)nnc1C1=CCN(Cc2cc3c(-c4ccc(N)nc4)ccnc3n2C)CC1 [Example 1z6, 6-(1-((4-(6-aminopyridin-3-yl)-1-methyl-1H-pyrrolo[2,3-b]pyridin-2-yl)methyl)-1,2,3,6-tetrahydropyridin-4-yl)-N,N,5-trimethylpyridazine-3-carboxamide] | < 20 |
| CN(C)C(=O)c1ccc(C2=CCN(Cc3cc4c(-c5ccc(N)nc5)ccnc4n3C)CC2)cc1F [Example 1z7, 4-(1-((4-(6-aminopyridin-3-yl)-1-methyl-1H-pyrrolo[2,3-b]pyridin-2-yl)methyl)-1,2,3,6-tetrahydropyridin-4-yl)-2-fluoro-N,N-dimethylbenzamide] | 20 to 30 |
| [2H]C([2H])([2H])N(C(=O)c1cnc(C2=CCN(Cc3cc4c(-c5cnc(N)cc5F)ccnc4n3C)CC2)nc1)C([2H])([2H])[2H] [Example 1z11, 2-(1-((4-(6-amino-4-fluoropyridin-3-yl)-1-methyl-1H-pyrrolo[2,3-b]pyridin-2-yl)methyl)-1,2,3,6-tetrahydropyridin-4-yl)-N,N-bis(methyl-d3)pyrimidine-5-carboxamide] | 20 to 30 |
| [2H]C([2H])([2H])N(C(=O)c1cnc(C2=CCN(Cc3cc4c(-c5ccc(N)nc5C#N)ccnc4n3C)CC2)nc1)C([2H])([2H])[2H] [Example 1z15, 2-(1-((4-(6-amino-2-cyanopyridin-3-yl)-1-methyl-1H-pyrrolo[2,3-b]pyridin-2-yl)methyl)-1,2,3,6-tetrahydropyridin-4-yl)-N,N-bis(methyl-d3)pyrimidine-5-carboxamide] | < 20 |

Same assay, conditions: Homo sapiens, Hec50, 48 h

| Compound | EC50 [nM] |
| --- | --- |
| Cc1cc(C(=O)N(C)C)cc(C)c1C1=CCN(Cc2cc3c(-c4ccc(N)nn4)ccnc3n2C)CC1 [Example 1z12, 4-(1-((4-(6-aminopyridazin-3-yl)-1-methyl-1H-pyrrolo[2,3-b]pyridin-2-yl)methyl)-1,2,3,6-tetrahydropyridin-4-yl)-N,N,3,5-tetramethylbenzamide] | 57 |
| CN(C)C(=O)c1cc(F)c(C2=CCN(Cc3cc4c(-c5ccc(N)cn5)ccnc4n3C)CC2)c(F)c1 [Example 1z17, 4-(1-((4-(5-aminopyridin-2-yl)-1-methyl-1H-pyrrolo[2,3-b]pyridin-2-yl)methyl)-1,2,3,6-tetrahydropyridin-4-yl)-3,5-difluoro-N,N-dimethylbenzamide] | 368 |

Other lines, results leading:

| EC50 [nM] | Compound |
| --- | --- |
| 239 | CNc1ccc(-c2ccnc3c2cc(CN2CC=C(c4c(C)cc(C(=O)N(C)C)cc4C)CC2)n3C)nn1 [Example 1p10, N,N,3,5-Tetramethyl-4-[1-[[1-methyl-4-[6-(methylamino)pyridazin-3-yl]pyrrolo[2,3-b]pyridin-2-yl]methyl]-3,6-dihydro-2H-pyridin-4-yl]benzamide] |
| 4530 | CNc1ccc(-c2ccnc3c2cc(CN2CC=C(c4ncc(C(=O)N(C)C)cc4C)CC2)n3C)nn1 [Example 1p11, N,N,5-Trimethyl-6-[1-[[1-methyl-4-[6-(methylamino)pyridazin-3-yl]pyrrolo[2,3-b]pyridin-2-yl]methyl]-3,6-dihydro-2H-pyridin-4-yl]pyridine-3-carboxamide] |
| 3200 | CNc1ccc(-c2ccnc3c2cc(CN2CC=C(c4ccc(C(=O)N(C)C)cc4OC)CC2)n3C)nn1 [Example 1p14, 3-Methoxy-N,N-dimethyl-4-[1-[[1-methyl-4-[6-(methylamino)pyridazin-3-yl]pyrrolo[2,3-b]pyridin-2-yl]methyl]-3,6-dihydro-2H-pyridin-4-yl]benzamide] |
| 1530 | CNc1ccc(-c2ccnc3c2cc(CN2CC=C(c4ccc(C(=O)N(C)C)cc4C(F)(F)F)CC2)n3C)nn1 [Example 1p15, N,N-Dimethyl-4-[1-[[1-methyl-4-[6-(methylamino)pyridazin-3-yl]pyrrolo[2,3-b]pyridin-2-yl]methyl]-3,6-dihydro-2H-pyridin-4-yl]-3-(trifluoromethyl)benzamide] |
| 94 | CNc1ccc(-c2ccnc3c2cc(CN2CC=C(c4c(C)cc(C(=O)N(C)C)cc4F)CC2)n3C)nn1 [Example 1p17, 3-Fluoro-N,N,5-trimethyl-4-[1-[[1-methyl-4-[6-(methylamino)pyridazin-3-yl]pyrrolo[2,3-b]pyridin-2-yl]methyl]-3,6-dihydro-2H-pyridin-4-yl]benzamide] |
| 1710 | CNc1ccc(-c2ccnc3c2cc(CN2CC=C(c4ccc(C(=O)N(C)C)cc4Cl)CC2)n3C)nn1 [Example 1p18, 3-Chloro-N,N-dimethyl-4-[1-[[1-methyl-4-[6-(methylamino)pyridazin-3-yl]pyrrolo[2,3-b]pyridin-2-yl]methyl]-3,6-dihydro-2H-pyridin-4-yl]benzamide] |
| 214 | CNc1ccc(-c2ccnc3c2cc(CN2CC=C(c4c(F)cc(C(=O)N(C)C)cc4Cl)CC2)n3C)nn1 [Example 1p20, 3-Chloro-5-fluoro-N,N-dimethyl-4-[1-[[1-methyl-4-[6-(methylamino)pyridazin-3-yl]pyrrolo[2,3-b]pyridin-2-yl]methyl]-3,6-dihydro-2H-pyridin-4-yl]benzamide] |
| 5.76 | CN(C)C(=O)c1ccc(C2=CCN(Cc3cc4c(-c5ccc(N)nn5)ccnc4n3C)CC2)cc1 [Example 1z1, 4-(1-((4-(6-aminopyridazin-3-yl)-1-methyl-1H-pyrrolo[2,3-b]pyridin-2-yl)methyl)-1,2,3,6-tetrahydropyridin-4-yl)-N,N-dimethylbenzamide] |
| 167 | [2H]C([2H])([2H])N(C(=O)c1ccc([C@@H]2CCN(Cc3cc4c(-c5ccc(N)cn5)ccnc4n3C)[C@H](C)C2)cc1)C([2H])([2H])[2H] [Example 1z9, 4-((2R,4R)-1-((4-(5-aminopyridin-2-yl)-1-methyl-1H-pyrrolo[2,3-b]pyridin-2-yl)methyl)-2-methylpiperidin-4-yl)-N,N-bis(methyl-d3)benzamide] |
| 473 | CN(C)C(=O)c1ccc(C2=CCN(Cc3cc4c(-c5ccc(N)nc5)ccnc4n3C)CC2)c(C#N)c1 [Example 1z10, 4-(1-((4-(6-aminopyridin-3-yl)-1-methyl-1H-pyrrolo[2,3-b]pyridin-2-yl)methyl)-1,2,3,6-tetrahydropyridin-4-yl)-3-cyano-N,N-dimethylbenzamide] |
| 37.8 | Cc1cc(C(=O)N(C)C)cc(F)c1C1=CCN(Cc2cc3c(-c4ccc(N)nn4)ccnc3n2C)CC1 [Example 1z14, 4-(1-((4-(6-aminopyridazin-3-yl)-1-methyl-1H-pyrrolo[2,3-b]pyridin-2-yl)methyl)-1,2,3,6-tetrahydropyridin-4-yl)-3-fluoro-N,N,5-trimethylbenzamide] |
| 335 | CN(C)C(=O)c1cc(F)c(C2=CCN(Cc3cc4c(-c5ccc(N)nc5)ccnc4n3C)CC2)c(F)c1 [Example 1z16, 4-(1-((4-(6-aminopyridin-3-yl)-1-methyl-1H-pyrrolo[2,3-b]pyridin-2-yl)methyl)-1,2,3,6-tetrahydropyridin-4-yl)-3,5-difluoro-N,N-dimethylbenzamide] |
| 204 | CN(C)C(=O)c1cc(F)c(C2=CCN(Cc3cc4c(-c5ccc(N)nn5)ccnc4n3C)CC2)c(F)c1 [Example 1z18, 4-(1-((4-(6-aminopyridazin-3-yl)-1-methyl-1H-pyrrolo[2,3-b]pyridin-2-yl)methyl)-1,2,3,6-tetrahydropyridin-4-yl)-3,5-difluoro-N,N-dimethylbenzamide] |
| 53.3 | [2H]C([2H])([2H])N(C(=O)c1cc(C)c(C2=CCN(Cc3cc4c(-c5ccc(N)nn5)ccnc4n3C)CC2)c(F)c1)C([2H])([2H])[2H] [Example 1z20, 4-(1-((4-(6-aminopyridazin-3-yl)-1-methyl-1H-pyrrolo[2,3-b]pyridin-2-yl)methyl)-1,2,3,6-tetrahydropyridin-4-yl)-3-fluoro-5-methyl-N,N-bis(methyl-d3)benzamide] |
